Experiments:
Format in all cases: cell-based
[1] = system: Pseudomonas aeruginosa ATCC 9027; test: Preservation efficacy test in sterile distilled water, drop plate; details: 7 days
Protocol: In the following example, the following test organisms were used: • Pseudomonas aeruginosa ATCC 9027 • Aspergillus brasiliensis ATCC 16404 [table] Bacteria were harvested and prepared in diluent (sterile distilled water) to obtain a final concentration of 1.0×10^6 to 5.0×10^6 cfu/ml. [table] […] Each sample was inoculated at t=0 with a known concentration of micro-organism. Each inoculated sample was then mixed until a homogenous mixture was obtained. […] The solution was left for 15 minutes. Subsequent dilutions were prepared by serial dilution of 0.1 ml into 0.9 ml of neutralising broth. Bacteria were serially diluted to 10^−4, Fungi were serially diluted to 10^−3. Each serial dilution was thoroughly mixed and 25 μl drops were aliquoted onto the surface of pre-prepared agar plates. Plates were prepared in sextupicate for each sample dilution. The agar plates were allowed to dry, then inverted and incubated under conditions appropriate for the test microorganisms. CFU/ml was calculated taking into account dilution factors. […] The lower and upper limits for drop plating were only employed on the highest and lowest dilution factor plates.

[2] = system: Aspergillus brasiliensis ATCC 16404; test: as above; details: 7 days
Protocol: In the following example, the following test organisms were used: • Pseudomonas aeruginosa ATCC 9027 • Aspergillus brasiliensis ATCC 16404 [table] Mould strain spores were harvested (sterile distilled water+0.05% polysorbate 80) and treated to remove fungal hyphae. Mould strain spores were prepared in diluent (sterile distilled water) to obtain a final concentration of […]. [table] […] Each sample was inoculated at t=0 with a known concentration of micro-organism. Each inoculated sample was then mixed until a homogenous mixture was obtained. […] The solution was left for 15 minutes. Subsequent dilutions were prepared by serial dilution of 0.1 ml into 0.9 ml of neutralising broth. Bacteria were serially diluted to 10^−4, Fungi were serially diluted to 10^−3. Each serial dilution was thoroughly mixed and 25 μl drops were aliquoted onto the surface of pre-prepared agar plates. Plates were prepared in sextupicate for each sample dilution. The agar plates were allowed to dry, then inverted and incubated under conditions appropriate for the test microorganisms. CFU/ml was calculated taking into account dilution factors. […] The lower and upper limits for drop plating were only employed on the highest and lowest dilution factor plates.

Pseudomonas aeruginosa = test: MIC and Synergy Index (Kull) of two-component compositions
Protocol: (§1) A wide range of concentrations were tested against Pseudomonas aeruginosa, Staphylococcus aureus, Escherichia coli, and Candda albicans.
(§2) The lowest concentration of each mixture or single compound which prevents an observable level of growth was determined to be the minimum inhibitory concentration (MIC) value.
(§3) Serial dilutions of each mixture or single compound were prepared. Micro-organisms were inoculated into media: Nutrient Broth (bacteria) or Malt Extract Broth (yeast). The final concentrations of micro-organisms in media was approximately 10^5-6 CFU/ml. The inoculated media was introduced to each of the serial dilutions at a 1:1 ratio, and incubated at 30±1° C. for 24-48 hours.
(§4) The MICs for each mixture was compared with the MIC of each single compound alone.
(§5) Synergy was determined using the Kull equation (F. C. Kull et. al., “Mixtures of Quaternary Ammonium Compounds and Long-chain Fatty Acids as Antifungal Agents”, Appl Microbiol. 1961 November; 9(6): 538-541), which calculates a Synergy Index (SI) according the following equation:
(§6) [formula] • wherein • QA=concentration of compound A in ppm, acting alone produced an end point, • Qa=concentration of compound A in ppm, in the mixture, which produced an end point, • QB=concentration of compound B in ppm, acting alone produced an end point, and • Qb=concentration of compound B in ppm, in the mixture, which produced an end point;
(§7) In this study the end point is measured by the MIC.

Staphylococcus aureus = test: as above; details: Staphylococcus aureus, butyl levulinate alone, or its concentration in the mixture with Sodium benzoate; read-out: MIC (ppm) to inhibit growth: Butyl levulinate
Protocol: as §1, §2, §3, §4, §5, §6, §7

Escherichia coli = test: as above
Protocol: as §1, §2, §3, §4, §5, §6, §7

[3] = pH 7, Butyl Levulinate 500 ppm, Potassium Sorbate 0 ppm
[4] = pH 7, Butyl Levulinate 1000 ppm, Potassium Sorbate 0 ppm
[5] = pH 7, Butyl Levulinate 1500 ppm, Potassium Sorbate 0 ppm
[6] = pH 7, Butyl Levulinate 1500 ppm, Sodium Benzoate 0 ppm
[7] = pH 7, Butyl Levulinate 2000 ppm, Potassium Sorbate 0 ppm
[8] = pH 7, Butyl Levulinate 2000 ppm, Sodium Benzoate 0 ppm
[9] = pH 7, Butyl Levulinate 2500 ppm, Potassium Sorbate 0 ppm
[10] = pH 7, Butyl Levulinate 2500 ppm, Sodium Benzoate 0 ppm
[11] = pH 8, Butyl Levulinate 500 ppm, Sodium Benzoate 0 ppm
[12] = pH 8, Butyl Levulinate 1000 ppm, Sodium Benzoate 0 ppm
[13] = pH 8, Butyl Levulinate 1500 ppm, Sodium Benzoate 0 ppm
[14] = pH 8, Butyl Levulinate 2000 ppm, Sodium Benzoate 0 ppm
[15] = pH 8, Butyl Levulinate 2500 ppm, Sodium Benzoate 0 ppm

Q: For `CCCCOC(=O)CCC(C)=O` [Butyl Levulinate, butyl levulinate], which Log reduction [1, 3] is on record?
A: <0.03

Q: What about the Log reduction [1, 4] of the same molecule?
A: <0.03

Q: And the Log reduction [1, 5]?
A: <0.03

Q: What about the Log reduction [1, 6] of the same molecule?
A: <0.38

Q: And the Log reduction [1, 7]?
A: <0.03

Q: What about the Log reduction [1, 8] of the same molecule?
A: <0.38

Q: And the Log reduction [1, 9]?
A: <0.03

Q: And the Log reduction [1, 10]?
A: <0.38

Q: And the Log reduction ([1]; pH 8, Butyl Levulinate 500 ppm, Potassium Sorbate 0 ppm)?
A: <0.33

Q: And the Log reduction [1, 11]?
A: <0.05

Q: What about the Log reduction ([1]; pH 8, Butyl Levulinate 1000 ppm, Potassium Sorbate 0 ppm) of the same molecule?
A: <0.33

Q: And the Log reduction [1, 12]?
A: <0.05

Q: What about the Log reduction ([1]; pH 8, Butyl Levulinate 1500 ppm, Potassium Sorbate 0 ppm) of the same molecule?
A: <0.33

Q: And the Log reduction [1, 13]?
A: <0.05

Q: What about the Log reduction ([1]; pH 8, Butyl Levulinate 2000 ppm, Potassium Sorbate 0 ppm) of the same molecule?
A: <0.33

Q: What about the Log reduction [1, 14] of the same molecule?
A: <0.05

Q: And the Log reduction ([1]; pH 8, Butyl Levulinate 2500 ppm, Potassium Sorbate 0 ppm)?
A: <0.33

Q: What about the Log reduction [1, 15] of the same molecule?
A: <0.05

Q: And the Log reduction ([2]; pH 7, Butyl Levulinate 500 ppm, IPBC 0 ppm)?
A: 0.61

Q: What about the Log reduction [2, 3] of the same molecule?
A: 0.10

Q: And the Log reduction ([2]; pH 7, Butyl Levulinate 500 ppm, Sodium Benzoate 0 ppm)?
A: 1.90

Q: What about the Log reduction ([2]; pH 7, Butyl Levulinate 1000 ppm, IPBC 0 ppm) of the same molecule?
A: 0.60

Q: What about the Log reduction [2, 4] of the same molecule?
A: 0.10

Q: What about the Log reduction ([2]; pH 7, Butyl Levulinate 1000 ppm, Sodium Benzoate 0 ppm) of the same molecule?
A: 1.82

Q: What about the Log reduction ([2]; pH 7, Butyl Levulinate 1500 ppm, IPBC 0 ppm) of the same molecule?
A: 0.74

Q: What about the Log reduction [2, 5] of the same molecule?
A: 0.31

Q: And the Log reduction [2, 6]?
A: 1.85

Q: What about the Log reduction ([2]; pH 7, Butyl Levulinate 2000 ppm, IPBC 0 ppm) of the same molecule?
A: 0.70

Q: What about the Log reduction [2, 7] of the same molecule?
A: −0.01

Q: What about the Log reduction [2, 8] of the same molecule?
A: 2.01

Q: And the Log reduction ([2]; pH 7, Butyl Levulinate 2500 ppm, IPBC 0 ppm)?
A: 0.72

Q: And the Log reduction [2, 9]?
A: 0.18

Q: And the Log reduction [2, 10]?
A: 1.80

Q: What about the Log reduction [2, 11] of the same molecule?
A: 0.64

Q: What about the Log reduction [2, 12] of the same molecule?
A: 0.36

Q: What about the Log reduction [2, 13] of the same molecule?
A: 0.36

Q: And the Log reduction [2, 14]?
A: 0.38

Q: What about the Log reduction [2, 15] of the same molecule?
A: 0.33

Q: What about the MIC (Pseudomonas aeruginosa; Pseudomonas aeruginosa, butyl levulinate alone, or its concentration in the mixture with Lactic Acid, read-out: MIC (ppm) to inhibit growth: Butyl levulinate) of the same molecule?
A: 6250 µg/mL

Q: What about the “MIC (ppm) to inhibit growth: Butyl levulinate” value (from here on “MIC (ppm) to inhibit growth”) (Pseudomonas aeruginosa; butyl levulinate alone, or its concentration in the mixture with MGDA) of the same molecule?
A: 6250 ppm

Q: And the “MIC (ppm) to inhibit growth” value (Pseudomonas aeruginosa; butyl levulinate alone, or its concentration in the mixture with Sodium pyrithione)?
A: 6250 ppm

Q: And the MIC (Staphylococcus aureus)?
A: 25000 µg/mL

Q: And the MIC (Escherichia coli; Escherichia coli, butyl levulinate alone, or its concentration in the mixture with Sodium benzoate, read-out: MIC (ppm) to inhibit growth: Butyl levulinate)?
A: 3120 µg/mL

Q: And the “MIC (ppm) to inhibit growth” value (Escherichia coli; butyl levulinate alone, or its concentration in the mixture with DHA)?
A: 3125 ppm

Source: US20250040543A1, “Preservative Composition” (ARXADA AG, priority 2021, published 2025)
